Data from US20110039763A1, “TARGETED ANTIMICROBIAL MOIETIES” (C3 JIAN, INC., priority 2009, published 2011).
Entries after “also recorded” stand apart in the source; their conditions may differ.

Legend:
microorganisms [1] = assay: Targeting peptide binding to target microorganisms (Tables 3, 10, 12); conditions: microorganism(s) the targeting peptide binds, preferably 1x PBS
microorganisms [2] = assay: Morphology, biofilm and growth disrupting peptides (Table 5); assay type: cell-based; design: key: A: Peptide aggregates; B: Less hyphal formation; Clumps; Diffuse clumps and small polyps; F: Diffuse growth; H: Thin; I: Growth inhibition; Microcolony formation; Rippled; Small polyps; Thick; W: Halo formation on top, microlonies on bottom
Description: In certain embodiments peptides that induce alterations in phenotype or other biological activities can also be used as antimicrobial effector moieties.

microorganisms [3] = assay: Peptide activities: targeting/binding, antimicrobial, growth or phenotype altering (Tables 7, 8); assay type: cell-based; conditions: peptides having multiple activities
[4] = binding in aqueous buffers varied with peptide solubility
[5] = binding in aqueous buffers that varied with peptide solubility

## PF-569: peptide having multiple activities (KSKISEYTEKEFLEFVEDIYTNNK; Peptide with targeting and/or antimicrobial activity)
Microorganisms [1]; [4]
  Target(s): M. luteus; also recorded: P. mirabilis; also recorded: S. pneumoniae; also recorded: E. faecalis; also recorded: C. jeikeium
Microorganisms [2]; B. subtilis
  Organism, effect: B. subtilis (D)
Microorganisms [3]
  Activities: G B

## PF-393: peptide having multiple activities (chain 1 DLVQSILSEFKKSG; chain 2 DLVQSILSEFKKSG; Peptide with targeting and/or antimicrobial activity)
Microorganisms [1]; [4]
  Target(s): S. epidermidis and E. coli and C. albicans and MRSA and S. pneumoniae and C. jejuni
Microorganisms [2]; C. jejuni
  Organism, effect: C. jejuni: C. jejuni (R)
Microorganisms [2]; E. faecalis
  Organism, effect: E. faecalis: E. faecalis (A)
Microorganisms [2]; MRSA
  Organism, effect: MRSA: MRSA (C)
Microorganisms [2]; S. epidermidis
  Organism, effect: S. epidermidis: S. epidermidis (R)
Microorganisms [2]; S. pneumoniae
  Organism, effect: S. pneumoniae: S. pneumoniae (R)
Microorganisms [3]
  Activities: G B

## PF-C281: peptide having multiple activities (chain 1 KKEKLLTAIRLQHRAEIRGYFTIFFLFFRI; chain 2 KKEKLLTAIRLQHRAEIRGYFTIFFLFFRI; Peptide with targeting and/or antimicrobial activity)
Microorganisms [1]; [4]
  Target(s): A. naeslundii; also recorded: F. nucleatum; also recorded: P. gingivalis; also recorded: S. mutans; also recorded: T. denticola
Microorganisms [2]; S. mutans
  Organism, effect: S. mutans (F)
Microorganisms [3]
  Activities: G B

## PF-297: peptide having multiple activities (ISKGIDDIVYVINKILSIGNIFKIIKRK; Peptide with targeting and/or antimicrobial activity)
Microorganisms [1]; [4]
  Target(s): S. epidermidis; also recorded: B. subtilis; also recorded: B. fragilis
Microorganisms [2]; B. subtilis
  Organism, effect: B. subtilis: B. subtilis (C)
Microorganisms [2]; S. epidermidis
  Organism, effect: S. epidermidis: S. epidermidis (C)
Microorganisms [3]
  Activities: G B

## PF-625: peptide having multiple activities (chain 1 SDSTNNARTRKKARDVTTKDIDK; chain 2 SDSTNNARTRKKARDVTTKDIDK; Peptide with targeting and/or antimicrobial activity)
Microorganisms [1]; [4]
  Target(s): S. epidermidis; also recorded: M. luteus; also recorded: S. pneumoniae; also recorded: C. jeikeium
Microorganisms [2]; S. pneumoniae
  Organism, effect: S. pneumoniae (H)
Microorganisms [3]
  Activities: G B

## LHVIRPRPELSELKFPITKILKVNKQGLKK [PF-752]
Microorganisms [1]; [4]
  Target(s): S. epidermidis and E. coli and MRSA and S. pneumoniae and E. faecalis
Microorganisms [2]; S. pneumoniae
  Organism, effect: S. pneumoniae (C)
Microorganisms [3]
  Activities: G B

## PF-026: peptide having multiple activities (SIHFIN; Peptide with targeting and/or antimicrobial activity)
Microorganisms [1]; [5]
  Target(s): S. epidermidis and M. luteus and P. mirabilis and C. albicans and MRSA and E. faecalis and C. jeikeium
Microorganisms [2]; MRSA
  Organism, effect: MRSA: MRSA (M)
Microorganisms [3]
  Activities: G B

## PF-613: peptide having multiple activities (chain 1 ADEFAKL; chain 2 ADEFAKL; Peptide with targeting and/or antimicrobial activity)
Microorganisms [1]; [4]
  Target(s): C. jeikeium
Microorganisms [2]; E. faecalis
  Organism, effect: E. faecalis (A)
Microorganisms [2]; MRSA
  Organism, effect: MRSA (C)
Microorganisms [2]; S. epidermidis
  Organism, effect: S. epidermidis (R)
Microorganisms [3]
  Activities: G B

## PF-204: peptide having multiple activities (ALQKQDMNLPSVKNQLVFLKSTG; Peptide with targeting and/or antimicrobial activity)
Microorganisms [1]; [4]
  Target(s): S. epidermidis; also recorded: P. mirabilis; also recorded: E. coli; also recorded: P. aeruginosa; also recorded: C. albicans; also recorded: C. jejuni
Microorganisms [2]; C. jeikeium
  Organism, effect: C. jeikeium: C. jeikeium (D)
Microorganisms [2]
  Organism, effect: M. luteus: M. luteus (C)
Microorganisms [2]; P. aeruginosa
  Organism, effect: P. aeruginosa: P. aeruginosa (H)
Microorganisms [2]; S. epidermidis
  Organism, effect: S. epidermidis: S. epidermidis (C)
Microorganisms [3]
  Activities: G B

## PF-760: peptide having multiple activities (DHITLDDYEIHDGFNFELYYG; Peptide with targeting and/or antimicrobial activity)
Microorganisms [1]; [4]
  Target(s): S. epidermidis; also recorded: M. luteus
Microorganisms [2]; MRSA
  Organism, effect: MRSA (M)
Microorganisms [2]; S. epidermidis
  Organism, effect: S. epidermidis (M)
Microorganisms [2]; S. pneumoniae
  Organism, effect: S. pneumoniae (C)
Microorganisms [3]
  Activities: G B

## PF-234: peptide having multiple activities (RTPYILRS; Peptide with targeting and/or antimicrobial activity)
Microorganisms [1]; [4]
  Target(s): S. epidermidis; also recorded: M. luteus
Microorganisms [2]
  Organism, effect: M. luteus: M. luteus (T)
Microorganisms [3]
  Activities: G B

## PF-373: peptide having multiple activities (chain 1 HFYLLFER; chain 2 HFYLLFER; Peptide with targeting and/or antimicrobial activity)
Microorganisms [1]; [4]
  Target(s): S. epidermidis and E. coli and P. aeruginosa and C. albicans and MRSA and E. faecalis and C. jejuni
Microorganisms [2]; MRSA
  Organism, effect: MRSA: MRSA (M)
Microorganisms [2]; S. epidermidis
  Organism, effect: S. epidermidis: S. epidermidis (M)
Microorganisms [3]
  Activities: G B

## PF-588: peptide having multiple activities (chain 1 ESVEAIKAKAIK; chain 2 ESVEAIKAKAIK; Peptide with targeting and/or antimicrobial activity)
Microorganisms [1]; [4]
  Target(s): S. epidermidis; also recorded: E. coli; also recorded: C. albicans; also recorded: E. faecalis; also recorded: C. jeikeium; also recorded: C. jejuni
Microorganisms [2]; E. faecalis
  Organism, effect: E. faecalis (A)
Microorganisms [3]
  Activities: G B

## PF-171: peptide having multiple activities (TQVTLCRTW; Peptide with targeting and/or antimicrobial activity)
Microorganisms [1]; [4]
  Target(s): S. epidermidis; also recorded: E. coli; also recorded: P. aeruginosa; also recorded: S. pneumoniae
Microorganisms [2]; B. subtilis
  Organism, effect: B. subtilis: B. subtilis (D)
Microorganisms [2]; C. jejuni
  Organism, effect: C. jejuni: C. jejuni (R)
Microorganisms [2]
  Organism, effect: M. luteus: M. luteus (R)
Microorganisms [2]; MRSA
  Organism, effect: MRSA: MRSA (M)
Microorganisms [2]; S. epidermidis
  Organism, effect: S. epidermidis: S. epidermidis (R)
Microorganisms [2]; S. pneumoniae
  Organism, effect: S. pneumoniae: S. pneumoniae (D)
Microorganisms [3]
  Activities: G B

## PF-C088: peptide having multiple activities (DIANNILNSVSERLIIA; Peptide with targeting and/or antimicrobial activity)
Microorganisms [1]; [4]
  Target(s): A. naeslundii; also recorded: F. nucleatum; also recorded: P. gingivalis; also recorded: S. mutans; also recorded: T. denticola
Microorganisms [2]; F. nucleatum
  Organism, effect: F. nucleatum (H)
Microorganisms [2]; P. gingivalis
  Organism, effect: P. gingivalis (R)
Microorganisms [2]; S. mutans
  Organism, effect: S. mutans (I)
Microorganisms [3]
  Activities: G B

## PF-249: peptide having multiple activities (chain 1 INSRYKISF; chain 2 INSRYKISF; Peptide with targeting and/or antimicrobial activity)
Microorganisms [1]; [4]
  Target(s): S. epidermidis; also recorded: M. luteus
Microorganisms [2]
  Organism, effect: M. luteus: M. luteus (R)
Microorganisms [3]
  Activities: G B

## PF-362: peptide having multiple activities (chain 1 NIERILKEKVWMIRCVE; chain 2 NIERILKEKVWMIRCVE; Peptide with targeting and/or antimicrobial activity)
Microorganisms [1]; [4]
  Target(s): S. epidermidis; also recorded: E. coli; also recorded: P. aeruginosa; also recorded: C. albicans; also recorded: E. faecalis; also recorded: C. jejuni
Microorganisms [2]; E. coli
  Organism, effect: E. coli: E. coli (C)
Microorganisms [2]; MRSA
  Organism, effect: MRSA: MRSA (C)
Microorganisms [3]
  Activities: G B

## PF-551: peptide having multiple activities (QVKEKRREIELQFRDAEKKLEASVQAE; Peptide with targeting and/or antimicrobial activity)
Microorganisms [1]; [4]
  Target(s): S. pneumoniae
Microorganisms [2]; MRSA
  Organism, effect: MRSA (C)
Microorganisms [3]
  Activities: G B

## PF-235: peptide having multiple activities (GIPFSKPHKRQVNYMKSDVLAYIEQNKMAHTA; Peptide with targeting and/or antimicrobial activity)
Microorganisms [1]; [4]
  Target(s): S. epidermidis; also recorded: M. luteus
Microorganisms [2]
  Organism, effect: M. luteus: M. luteus (T)
Microorganisms [3]
  Activities: G B

## PF-559: peptide having multiple activities (SRPGKPGGVSIDVSRDRQDILSNYP; Peptide with targeting and/or antimicrobial activity)
Microorganisms [1]; [4]
  Target(s): S. epidermidis; also recorded: M. luteus; also recorded: C. albicans; also recorded: C. jeikeium; also recorded: C. jejuni
Microorganisms [2]; B. subtilis
  Organism, effect: B. subtilis (C)
Microorganisms [2]; C. jejuni
  Organism, effect: C. jejuni (A)
Microorganisms [3]
  Activities: G B

## PF-602: peptide having multiple activities (chain 1 LEKEKKEYIEKLFKTK; chain 2 LEKEKKEYIEKLFKTK; Peptide with targeting and/or antimicrobial activity)
Microorganisms [1]; [4]
  Target(s): P. mirabilis; also recorded: C. jeikeium
Microorganisms [2]; E. faecalis
  Organism, effect: E. faecalis (A)
Microorganisms [3]
  Activities: G B

## PF-002: peptide having multiple activities (NDDAQ; Peptide with targeting and/or antimicrobial activity)
Microorganisms [1]; [5]
  Target(s): S. epidermidis; also recorded: P. mirabilis; also recorded: C. albicans; also recorded: C. jeikeium; also recorded: C. jejuni
Microorganisms [2]; B. subtilis
  Organism, effect: B. subtilis: B. subtilis (R)
Microorganisms [2]; S. pneumoniae
  Organism, effect: S. pneumoniae: S. pneumoniae (H)
Microorganisms [3]
  Activities: G B

## PF-123: peptide having multiple activities (chain 1 TTRPQVAEDRQLDDALKETFPASDPISP; chain 2 TTRPQVAEDRQLDDALKETFPASDPISP; Peptide with targeting and/or antimicrobial activity)
Microorganisms [1]; [4]
  Target(s): M. luteus; also recorded: E. coli
Microorganisms [2]; S. epidermidis
  Organism, effect: S. epidermidis: S. epidermidis (M)
Microorganisms [3]
  Activities: G B
